The values that follow are results of earlier work, collected in patent publication US7153888B2, “Stabilization of benzoyl peroxide in solution” (Alpharx Inc., priority 2004, dated 2006).

Experiment in data set [1]: not given
The source holds these as a separate data set.

Consider `O=C(OOC(=O)c1ccccc1)c1ccccc1` [benzoyl peroxide], for which the stability by solvent result (in PEG 400) was “least stable”. For the same compound, the time until destroyed (in the presence of ethanol and acidic chelating agents, stored at 30° C. or 40° C.) is given as ≤ 1 month. The “first-order K value of decomposition” value (polyethylene glycol ointment base, 24° C.) is 0.028 day⁻¹. In addition, the “half-life (50% content decrease)” value (pure BP in different solvents, room temperature) was 151 to 6380 h. For the same compound, where the note is “suspension in polyethylene glycol ointment base, 50° C., 5 days”, the “potency of benzoyl peroxide suspension (decrease from 5%)” value is reported as “less than 1%”. Moreover, the solubility entry in data set [1] (common solvents such as alcohol, PEG and propylene glycol) is recorded as “below 20 mg/ml”. Besides, the drop of solubility in data set [1] (water-miscible solvent, water content grows from 0 to 25%) is 2–4 orders of magnitude.
